The values that follow come from patent US8889682B2, “Inhibitors of bruton'S tyrosine kinase” (Hoffmann-La Roche Inc., priority 2011, dated 2014).

What is called IC50 is the concentration that gives 50% inhibition.

This assay deals with B cell receptor-mediated activation of B cells in human blood (CD69 expression). Kind of assay: Inhibition of B cell activation in whole blood measured by CD69 expression. Format: cell-based. The following applies: anti-IgM stimulation, 20 hours, CD69-positive cells that are also CD20-positive, read-out: HWB IC50. The method, then: Inhibition of B Cell Activation in Whole Blood Measured by CD69 Expression
A procedure to test the ability of Btk inhibitors to suppress B cell receptor-mediated activation of B cells in human blood is as follows:
Human whole blood (HWB) is obtained from healthy volunteers, with the following restrictions: 24 hr drug-free, non-smokers. Blood is collected by venipuncture into Vacutainer tubes anticoagulated with sodium heparin. Test compounds are diluted to ten times the desired starting drug concentration in PBS […], followed by three-fold serial dilutions in 10% DMSO in PBS to produce a nine point dose-response curve. […] HWB (100 μl) is added to each well, and after mixing the plates are incubated at 37 C, 5% CO2, 100% humidity for 30 minutes.
Included are induced control, unstained and single stains for compensation adjustments and initial voltage settings. […] Supernatants are removed via suction and the remaining pellets are lysed again with another 1 ml of 1× Pharmingen Lyse Buffer, and plates are spun down as before. Supernatants are aspirated and remaining pellets are washed in FACs buffer (PBS+1% FBS). […] Samples are transferred to a 96 well plate suitable to be run on the HTS 96 well system on the BD LSR II flow cytometer.
Using appropriate excitation and emission wavelengths for the fluorophores used, data are acquired and percent positive cell values are obtained using Cell Quest Software. Results are initially analyzed by FACS analysis software (Flow Jo).
As to `Cn1nc(-c2ccnc(-n3ccc4cc(C(C)(C)C#N)cc(F)c4c3=O)c2CO)cc(Nc2ccc(OC(C)(C)CN3CC(F)(F)C3)cn2)c1=O` [Compound I-32, 2-{2-[4-(5-{5-[2-(3,3-Difluoro-azetidin-1-yl)-1,1-dimethyl-ethoxy]-pyridin-2-ylamino}-1-methyl-6-oxo-1,6-dihydro-pyridazin-3-yl)-3-hydroxymethyl-pyridin-2-yl]-8-fluoro-1-oxo-1,2-dihydro-isoquinolin-6-yl}-2-methyl-propionitrile], the half-maximal inhibitory concentration (IC50) is 106 nM.

`Cn1nc(-c2ccnc(-n3ncc4cc(C(C)(C)C)ccc4c3=O)c2CO)cc(Nc2ccc(OC(C)(C)CN3CC(F)(F)C3)cn2)c1=O` [Compound I-33, 6-tert-Butyl-2-[4-(5-{5-[2-(3,3-difluoro-azetidin-1-yl)-1,1-dimethyl-ethoxy]-pyridin-2-ylamino}-1-methyl-6-oxo-1,6-dihydro-pyridazin-3-yl)-3-hydroxymethyl-pyridin-2-yl]-2H-phthalazin-1-one]: the IC50 worked out at 212 nM.

With `Cn1nc(-c2ccnc(-n3ncc4cc(C(C)(C)C)cc(F)c4c3=O)c2CO)cc(Nc2cc3n(n2)CC[N+](C)([O-])C3)c1=O` (stereo not drawn) [Compound I-34, 6-tert-Butyl-8-fluoro-2-{3-hydroxymethyl-4-[1-methyl-5-(5-methyl-5-oxy-4,5,6,7-tetrahydro-pyrazolo[1,5-a]pyrazin-2-ylamino)-6-oxo-1,6-dihydro-pyridazin-3-yl]-pyridin-2-yl}-2H-phthalazin-1-one], the IC50 worked out at 3500 nM.
